These results are taken from patent publication US20100144708A1, “HETEROCYCLIC COMPOUNDS CONTAINING NITROGEN ATOMS OR PHARMACEUTICALLY ACCEPTABLE SALTS THEREOF, PROCESS FOR THE PREPARATION THEREOF AND PHARMACEUTICAL COMPOSITION COMPRISING THE SAME FOR TREATMENT OF CANCER” (Korea Research Instititute of Bioscience and Biotechnology, priority 2006, published 2010).

Bounds are passed on as bounds.

Type in all cases: cell-based, Human
One assay deals with ACHN (kidney cancer). The assay can be described thus: Test for inhibition of tumor cell growth (SRB), ACHN. To be noted: 48 hours, SRB staining; for GI50: Homo sapiens, ACHN. The method, then: (§1) Human tumor cell lines, PC-3 (prostate cancer, ATCC, USA), MBA-MB-231 (breast cancer, ATCC, USA), ACHN (kidney cancer, ATCC, USA), and NUGC-3 (gastric cancer, ATCC, USA) were cultured in RPMI 1640 media containing 10% fetal bovine serum (FBS).
(§2) In order to measure anticancer activity, a suitable concentration of cells in RPMI 1640 media containing 5% fetal bovine serum (about 5×10^4 cells/□) was aliquotted in 96-well plates, and cultured in 5% CO2 at 37° C. On day one after aliquoting the cells, before the cells were treated with the compounds, in order to determine their concentration, 50[…] of 50% trichloroacetic acid was added to each well of time zero (T0) plate, and cells were fixed to determine zero point. The cells treated with the compounds were fixed on each well having 50[…] of 50% trichloroacetic acid after 48 hours. The final concentrations of the test compounds were 0.01, 0.03, 0.1, 0.3, and 1[…]/□. The fixed plate was washed with water and dried, and then 100[…] of 0.4% sulphorhodamine B (SRB) dissolved in 0.1% acetic acid was added to the each well to stain the cells. The plate was allowed to stand for 30 minutes, and then washed with 0.1% acetic acid. Then, the plate was dried at room temperature, and treated with 10 mM tris base (pH 10.5) to dissolve staining reagent. An absorbance measured at 540 nm was calculated as a percentage of the control group, and then the concentration of the compound that inhibited tumor cell growth (GI50(□/□)) by 50% was determined.
(In general: The SRB assay estimates cell density from bound dye.)

The test system of the next assay is PC-3 (prostate cancer). The assay can be described thus: Test for inhibition of tumor cell growth (SRB), PC-3. The following applies: 48 hours, SRB staining; for GI50: Homo sapiens, read-out: GI50 PC-3 (prostate ancer). The method, then: as §1, §2
The next assay relates to NUGC-3 (gastric cancer). The assay can be described thus: Test for inhibition of tumor cell growth (SRB), NUGC-3. To be noted: 48 hours, SRB staining; for GI50: Homo sapiens, NUGC-3. The method, then:
as §1, §2

The test system of assay [1] is MBA-MB-231 (breast cancer). The assay can be described thus: Test for inhibition of tumor cell growth (SRB), MBA-MB-231. To be noted: 48 hours, SRB staining; for GI50: Homo sapiens. How it is done: as §1, §2

As for `CCCCCCCCCCCCCCCCCC(=O)N1CC[N+](CC)(Cc2ccc(Br)cc2)CC1` [Example 50, 1-(4-bromobenzyl)-1-ethyl-4-stearoylpiperazin-1-ium bromide], the GI50 in the assay on ACHN (kidney cancer) was 1.94 mg/L; with PC-3 (prostate cancer), 0.95 mg/L; with NUGC-3 (gastric cancer), 2.49 mg/L; in assay [1], 2.3 mg/L.

With `CCCCCCCCCCCCCC(=O)N1CC[N+](CC)(Cc2cccc(F)c2)CC1` [Example 51, 1-ethyl-1-(3-fluorobenzyl)-4-tetradecanoylpiperazin-1-ium bromide], the GI50 in the assay with ACHN (kidney cancer) turned out to be 1.85 mg/L; in the assay with PC-3 (prostate cancer), 0.52 mg/L; with NUGC-3 (gastric cancer), 1.05 mg/L; in assay [1], 1.42 mg/L.

`CCCCCCCCCCCCCC(=O)N1CC[N+](CC)(Cc2cccc(C)c2)CC1` [Example 52, 1-ethyl-1-(3-methylbenzyl)-4-tetradecanoylpiperazin-1-ium bromide]: the GI50 in the assay on ACHN (kidney cancer) came out at 2.08 mg/L; with PC-3 (prostate cancer), 0.51 mg/L; in the assay on NUGC-3 (gastric cancer), 0.88 mg/L; in assay [1] it was 1.6 mg/L.

Take `CCCCCCCCCCCC(=O)N1CC[N+](CC)(Cc2cccc([N+](=O)[O-])c2)CC1` [Example 53, 4-dodecanoyl-1-ethyl-1-(3-nitrobenzyl)piperazin-1-ium bromide]: the GI50 amounted to 4.84 mg/L in the assay on ACHN (kidney cancer), 0.57 mg/L with PC-3 (prostate cancer), 3.52 mg/L with NUGC-3 (gastric cancer) and 3.95 mg/L in assay [1].

As to `CCCCCCCCCCCC(=O)N1CC[N+](CC)(Cc2cccc(F)c2)CC1.[Br-]` [Example 54], in the assay on ACHN (kidney cancer), the “GI50 ACHN (kidney cancer)” value was found to be 3.78 mg/L. The “GI50 PC-3 (prostate ancer)” value in the assay on PC-3 (prostate cancer) came to 0.53 mg/L. Besides, the “GI50 NUGC-3 (gastric cancer)” value with NUGC-3 (gastric cancer) was 1.61 mg/L. In addition, the “GI50 MBA-MB-231 (breast cancer)” value in assay [1] is 4.71 mg/L.

Regarding `CCCCCCCCCCCCCCCCCC(=O)N1CC[N+](CC)(Cc2cccc(C)c2)CC1` [Example 58, 1-ethyl-1-(3-methylbenzyl)-4-stearoylpiperazin-1-ium bromide], the GI50 worked out at 0.93 mg/L in the assay on ACHN (kidney cancer), 0.63 mg/L in the assay with PC-3 (prostate cancer), 0.46 mg/L with NUGC-3 (gastric cancer) and 1.52 mg/L in assay [1].

`CCCCCCCCCCCCCCCCCCS(=O)(=O)N1CC[N+](C)(CC)CC1` [Example 59, 1-ethyl-1-methyl-4-(octadecane-1-sulfonyl)piperazin-1-ium iodide]: the GI50 in the assay with ACHN (kidney cancer) stood at 1.07 mg/L; with PC-3 (prostate cancer) it was 0.84 mg/L; in the assay on NUGC-3 (gastric cancer) it was 0.66 mg/L; in assay [1], 2.05 mg/L.

In the case of `C=CC[N+]1(CC)CCN(S(=O)(=O)CCCCCCCC)CC1` [Example 60, 1-allyl-1-ethyl-4-(octane-1-sulfonyl)piperazin-1-ium bromide], the GI50 (in the assay with ACHN (kidney cancer); in the assay on PC-3 (prostate cancer); with NUGC-3 (gastric cancer); in assay [1]) was over 10 mg/L in each case.

As for `C=CC[N+]1(C)CCN(S(=O)(=O)CCCCCCCC)CC1` [Example 61, 1-allyl-1-methyl-4-(octane-1-sulfonyl)piperazin-1-ium bromide], the GI50 (in the assay with ACHN (kidney cancer); with PC-3 (prostate cancer); in the assay with NUGC-3 (gastric cancer); in assay [1]) was over 10 mg/L in each case.

For `CCCCCCCCS(=O)(=O)N1CC[N+](C)(Cc2ccccc2)CC1` [Example 62, 1-benzyl-1-methyl-4-(octane-1-sulfonyl)piperazin-1-ium bromide], the GI50 (in the assay with ACHN (kidney cancer); in the assay on PC-3 (prostate cancer); in the assay on NUGC-3 (gastric cancer); in assay [1]) was over 10 mg/L throughout.

`CCCCCCCCCCCS(=O)(=O)N1CC[N+](CC)(Cc2ccccc2)CC1` [Example 64, 1-benzyl-1-ethyl-4-(undecane-1-sulfonyl)piperazin-1-ium bromide]: the GI50 with ACHN (kidney cancer) worked out at 1.43 mg/L; in the assay with PC-3 (prostate cancer) it was 0.67 mg/L; in the assay with NUGC-3 (gastric cancer) it was 0.36 mg/L; in assay [1] it was 2.07 mg/L.

Regarding `CCCCCCCCCCCS(=O)(=O)N1CC[N+](C)(Cc2ccccc2)CC1` [Example 65, 1-benzyl-1-methyl-4-(undecane-1-sulfonyl)piperazin-1-ium bromide], the GI50 in the assay on ACHN (kidney cancer) came to 1.16 mg/L; with PC-3 (prostate cancer), 0.42 mg/L; with NUGC-3 (gastric cancer), 0.37 mg/L; in assay [1], 0.82 mg/L.

As to `CCCCCCCCCCCS(=O)(=O)N1CC[N+](C)(Cc2ccc(F)cc2)CC1` [Example 66, 1-(4-fluorobenzyl)-1-methyl-4-(undecane-1-sulfonyl)piperazin-1-ium bromide], the GI50 worked out at 1.24 mg/L in the assay with ACHN (kidney cancer), 0.56 mg/L with PC-3 (prostate cancer), 1.06 mg/L in the assay on NUGC-3 (gastric cancer) and 1.47 mg/L in assay [1].

Turning to `C=CC[N+]1(CC)CCN(S(=O)(=O)CCCCCCCCCCCCCC)CC1` [Example 67, 1-allyl-1-ethyl-4-(tetradecane-1-sulfonyl)piperazin-1-ium bromide], the GI50 with ACHN (kidney cancer) amounted to 0.51 mg/L; in the assay on PC-3 (prostate cancer), 0.87 mg/L; in the assay on NUGC-3 (gastric cancer), 0.6 mg/L; in assay [1], 1.05 mg/L.

Take `CCCCCCCCCCCCCCS(=O)(=O)N1CC[N+](CC)(Cc2ccc(F)cc2)CC1` [Example 68, 1-ethyl-1-(4-fluorobenzyl)-4-(tetradecane-1-sulfonyl)piperazin-1-ium bromide]: the GI50 is 1.19 mg/L with ACHN (kidney cancer), 0.71 mg/L in the assay with PC-3 (prostate cancer), 1.05 mg/L in the assay with NUGC-3 (gastric cancer) and 1.59 mg/L in assay [1].

In the case of `CCCCCCCCCCCCCCS(=O)(=O)N1CC[N+](C)(Cc2ccccc2)CC1` [Example 70, 1-benzyl-1-methyl-4-(tetradecane-1-sulfonyl)piperazin-1-ium bromide], the GI50 in the assay with ACHN (kidney cancer) worked out at 1.11 mg/L; with PC-3 (prostate cancer) it was 0.49 mg/L; in the assay with NUGC-3 (gastric cancer), 0.53 mg/L; in assay [1], 0.87 mg/L.

`CCCCCCCCCCCCCCS(=O)(=O)N1CC[N+](C)(Cc2ccc(F)cc2)CC1` [Example 71, 1-(4-fluorobenzyl)-1-methyl-4-(tetradecane-1-sulfonyl)piperazin-1-ium bromide]: the GI50 was 1.42 mg/L with ACHN (kidney cancer), 0.65 mg/L in the assay on PC-3 (prostate cancer), 0.82 mg/L with NUGC-3 (gastric cancer) and 1.14 mg/L in assay [1].

`C=CC[N+]1(CC)CCN(S(=O)(=O)CCCCCCCCCCCCCCCCCC)CC1` [Example 72, 1-allyl-1-ethyl-4-(octadecane-1-sulfonyl)piperazin-1-ium bromide]: the GI50 in the assay with ACHN (kidney cancer) amounted to 0.71 mg/L; in the assay on PC-3 (prostate cancer) it was 0.73 mg/L; with NUGC-3 (gastric cancer) it was 0.57 mg/L; in assay [1], 1.37 mg/L.

Turning to `CCCCCCCCCCCCCCCCCCS(=O)(=O)N1CC[N+](CC)(Cc2ccccc2)CC1` [Example 73, 1-benzyl-1-ethyl-4-(octadecane-1-sulfonyl)piperazin-1-ium bromide], the GI50 is 1.87 mg/L with ACHN (kidney cancer), 0.8 mg/L with PC-3 (prostate cancer), 0.85 mg/L in the assay on NUGC-3 (gastric cancer) and 1.75 mg/L in assay [1].

Consider `C=CC[N+]1(C)CCN(S(=O)(=O)CCCCCCCCCCCCCCCCCC)CC1` [Example 74, 1-allyl-1-methyl-4-(octadecane-1-sulfonyl)piperazin-1-ium bromide], for which the GI50 stood at 1.25 mg/L in the assay with ACHN (kidney cancer), 1 mg/L in the assay on PC-3 (prostate cancer), 0.85 mg/L with NUGC-3 (gastric cancer) and 1.72 mg/L in assay [1].

Consider `CCCCCCCCCCS(=O)(=O)N1CC[N+](C)(C)CC1` [Example 75, 4-(decane-1-sulfonyl)-1,1-dimethyl-piperazin-1-ium iodide], for which the GI50 in the assay on ACHN (kidney cancer) was 4.45 mg/L; with PC-3 (prostate cancer) it was 1.84 mg/L; with NUGC-3 (gastric cancer), 3.29 mg/L; in assay [1], over 10 mg/L.

Turning to `CCCCCCCCCCS(=O)(=O)N1CC[N+](C)(Cc2ccccc2)CC1` [Example 76, 1-benzyl-4-(decane-1-sulfonyl)-1-methyl-piperazin-1-ium bromide], the GI50 in the assay on ACHN (kidney cancer) is 3.5 mg/L; in the assay with PC-3 (prostate cancer), 0.54 mg/L; in the assay with NUGC-3 (gastric cancer), 0.99 mg/L; in assay [1], 4.02 mg/L.

Regarding `C=CC[N+]1(C)CCN(S(=O)(=O)CCCCCCCCCC)CC1` [Example 77, 1-allyl-4-(decane-1-sulfonyl)-1-methyl-piperazin-1-ium bromide], the GI50 in the assay with ACHN (kidney cancer) was 3.47 mg/L; in the assay on PC-3 (prostate cancer) it was 0.83 mg/L; in the assay on NUGC-3 (gastric cancer), 1.55 mg/L; in assay [1], over 10 mg/L.

With `CCCCCCCCCCS(=O)(=O)N1CC[N+](C)(CC)CC1` [Example 78, 4-(decane-1-sulfonyl)-1-ethyl-1-methyl-piperazin-1-ium iodide], the GI50 was 4.15 mg/L in the assay with ACHN (kidney cancer), 1.06 mg/L with PC-3 (prostate cancer), 1.81 mg/L with NUGC-3 (gastric cancer) and over 10 mg/L in assay [1].

With `CCCCCCCCCCS(=O)(=O)N1CC[N+](CC)(Cc2ccccc2)CC1` [Example 79, 1-benzyl-4-(decane-1-sulfonyl)-1-ethyl-piperazin-1-ium bromide], the GI50 was 4.41 mg/L in the assay on ACHN (kidney cancer), 0.85 mg/L in the assay on PC-3 (prostate cancer), 1.24 mg/L in the assay with NUGC-3 (gastric cancer) and over 10 mg/L in assay [1].

Regarding `C=CC[N+]1(CC)CCN(S(=O)(=O)CCCCCCCCCC)CC1` [Example 80, 1-allyl-4-(decane-1-sulfonyl)-1-ethyl-piperazin-1-ium bromide], the GI50 was 3.07 mg/L in the assay with ACHN (kidney cancer), 0.85 mg/L with PC-3 (prostate cancer), 0.89 mg/L in the assay with NUGC-3 (gastric cancer) and over 10 mg/L in assay [1].

As a reminder, the GI50 is the concentration that inhibits growth by half.
